Measured values taken from ChEMBL document CHEMBL1641539 (Bioorg Med Chem Lett, 2011).

Tests used:
[1] = target: T1, Mitogen-activated protein kinase 1 (Homo sapiens, UniProt P28482); assay: Inhibition of human MAPK2 at 10 uM after 60 mins by TR-FRET assay; details: values are per cent of control
[2] = target: Ephrin type-B receptor 4 (Homo sapiens) (UniProt P54760); assay: Inhibition of human EphB4 at 10 uM after 60 mins by TR-FRET assay; values are per cent of control
[3] = target: Tyrosine-protein kinase FRK (Homo sapiens) (UniProt P42685); assay: Inhibition of human PTK5 at 10 uM after 60 mins by TR-FRET assay; values are per cent of control
[4] = system: Tyrosine-protein kinase ABL1 (Homo sapiens), P00519 [M351T]; assay: Inhibition of human Abl M351T mutant at 10 uM after 60 mins by TR-FRET assay; values are per cent of control
[5] = target: Tyrosine-protein kinase Lyn (Mus musculus) (UniProt P25911); assay: Inhibition of mouse Lyn at 10 uM after 60 mins by TR-FRET assay; values are per cent of control
[6] = system: Epidermal growth factor receptor (Homo sapiens), P00533 [L861Q]; assay: Inhibition of human EGFR L861Q mutant at 10 uM after 60 mins by TR-FRET assay; format: protein assay; details: values are per cent of control
[7] = target: Serine/threonine-protein kinase VRK2 (Homo sapiens) (UniProt Q86Y07); assay: Inhibition of human VRK2 at 10 uM after 60 mins by TR-FRET assay; values are per cent of control
[8] = target: Cyclin-dependent kinase 2/cyclin A (Homo sapiens) (UniProt P24941+P20248+P78396); assay: Inhibition of human CDK2/cyclinA at 10 uM after 60 mins by TR-FRET assay; values are per cent of control
[9] = target: Serine/threonine-protein kinase DCLK2 (Homo sapiens) (UniProt Q8N568); assay: Inhibition of human DCAMKL2 at 10 uM after 60 mins by TR-FRET assay; values are per cent of control
[10] = target: Calcium/calmodulin-dependent protein kinase type 1D (Homo sapiens) (UniProt Q8IU85); assay: Inhibition of human CaMK1delta at 10 uM after 60 mins by TR-FRET assay; values are per cent of control
Calcium/calmodulin-dependent protein kinase type 1D (Homo sapiens), sequence (Q8IU85 whole entry, looked up): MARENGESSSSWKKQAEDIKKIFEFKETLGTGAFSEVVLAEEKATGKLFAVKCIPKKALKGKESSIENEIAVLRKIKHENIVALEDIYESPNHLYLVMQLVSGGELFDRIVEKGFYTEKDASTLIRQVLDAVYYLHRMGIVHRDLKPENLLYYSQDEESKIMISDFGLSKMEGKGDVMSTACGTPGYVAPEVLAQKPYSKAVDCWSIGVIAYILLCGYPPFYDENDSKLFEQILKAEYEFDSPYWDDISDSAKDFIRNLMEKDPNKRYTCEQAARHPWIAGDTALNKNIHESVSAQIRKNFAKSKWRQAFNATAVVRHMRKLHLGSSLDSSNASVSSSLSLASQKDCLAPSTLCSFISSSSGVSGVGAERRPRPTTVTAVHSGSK

[11] = target: Tyrosine-protein kinase SYK (Homo sapiens) (UniProt P43405); assay: Inhibition of human Syk at 10 uM after 60 mins by TR-FRET assay; details: values are per cent of control
[12] = target: T1, Mitogen-activated protein kinase 1; assay: Inhibition of human MAPK1 at 10 uM after 60 mins by TR-FRET assay; details: values are per cent of control
Saccharomyces cerevisiae = assay: Inhibition of yeast CK1 at 10 uM after 60 mins by TR-FRET assay; values are per cent of control
[13] = target: CDK9/cyclin T1 (Homo sapiens) (UniProt O60563+P50750); assay: Inhibition of human CDK9/cyclin T1 at 10 uM after 60 mins by TR-FRET assay; values are per cent of control
[14] = target: LIM domain kinase 1 (Homo sapiens) (UniProt P53667); assay: Inhibition of human LIMK1 at 10 uM after 60 mins by TR-FRET assay; values are per cent of control
LIM domain kinase 1 (Homo sapiens), sequence (P53667 whole entry, looked up, the tested form may be a part): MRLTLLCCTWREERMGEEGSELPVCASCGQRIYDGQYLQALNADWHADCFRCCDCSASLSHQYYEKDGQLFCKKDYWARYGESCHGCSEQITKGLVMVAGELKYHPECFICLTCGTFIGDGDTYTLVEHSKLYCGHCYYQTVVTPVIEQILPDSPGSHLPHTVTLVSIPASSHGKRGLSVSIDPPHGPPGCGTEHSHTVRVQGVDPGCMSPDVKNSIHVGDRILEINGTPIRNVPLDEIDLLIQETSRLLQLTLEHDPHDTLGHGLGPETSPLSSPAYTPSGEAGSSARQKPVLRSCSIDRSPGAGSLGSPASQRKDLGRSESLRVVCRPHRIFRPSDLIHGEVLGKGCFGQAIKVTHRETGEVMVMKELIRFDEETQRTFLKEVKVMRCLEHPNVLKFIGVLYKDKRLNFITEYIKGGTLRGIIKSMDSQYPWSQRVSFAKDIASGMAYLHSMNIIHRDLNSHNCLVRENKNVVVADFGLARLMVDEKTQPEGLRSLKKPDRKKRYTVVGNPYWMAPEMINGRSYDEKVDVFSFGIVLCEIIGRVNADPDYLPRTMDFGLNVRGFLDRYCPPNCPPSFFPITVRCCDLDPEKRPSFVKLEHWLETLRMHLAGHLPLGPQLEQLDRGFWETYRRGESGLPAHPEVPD

[15] = target: Dual specificity mitogen-activated protein kinase kinase 1 (Homo sapiens) (UniProt Q02750); assay: Inhibition of human MEK1 at 10 uM after 60 mins by TR-FRET assay; values are per cent of control
[16] = target: Ribosomal protein S6 kinase alpha-6 (Homo sapiens) (UniProt Q9UK32); assay: Inhibition of human Rsk4 at 10 uM after 60 mins by TR-FRET assay; details: values are per cent of control
Ribosomal protein S6 kinase alpha-6 (Homo sapiens), sequence (Q9UK32 whole entry, looked up): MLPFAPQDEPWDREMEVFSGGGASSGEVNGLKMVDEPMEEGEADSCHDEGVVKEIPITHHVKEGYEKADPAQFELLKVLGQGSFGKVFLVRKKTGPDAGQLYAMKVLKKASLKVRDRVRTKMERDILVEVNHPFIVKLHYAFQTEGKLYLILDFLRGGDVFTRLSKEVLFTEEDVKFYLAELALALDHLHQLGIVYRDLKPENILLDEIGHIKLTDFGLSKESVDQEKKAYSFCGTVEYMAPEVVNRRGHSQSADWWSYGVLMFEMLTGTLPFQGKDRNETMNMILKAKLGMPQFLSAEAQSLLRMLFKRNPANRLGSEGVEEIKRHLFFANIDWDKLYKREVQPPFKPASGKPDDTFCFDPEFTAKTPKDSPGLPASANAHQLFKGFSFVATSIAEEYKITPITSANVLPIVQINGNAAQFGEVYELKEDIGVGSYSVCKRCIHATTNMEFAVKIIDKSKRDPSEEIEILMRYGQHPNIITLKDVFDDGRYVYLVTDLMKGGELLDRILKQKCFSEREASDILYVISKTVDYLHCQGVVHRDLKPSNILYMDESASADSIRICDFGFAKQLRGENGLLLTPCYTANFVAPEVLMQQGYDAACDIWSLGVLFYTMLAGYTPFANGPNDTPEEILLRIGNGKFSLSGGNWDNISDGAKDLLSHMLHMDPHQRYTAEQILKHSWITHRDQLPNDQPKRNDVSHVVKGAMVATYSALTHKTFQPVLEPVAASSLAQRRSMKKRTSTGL

[17] = target: Fibroblast growth factor receptor 1 (Homo sapiens) (UniProt P11362); assay: Inhibition of human FGFR1 at 10 uM after 60 mins by TR-FRET assay; values are per cent of control
[18] = target: Casein kinase I isoform gamma-1 (Homo sapiens) (UniProt Q9HCP0); assay: Inhibition of human CK1gamma1 at 10 uM after 60 mins by TR-FRET assay; values are per cent of control
Casein kinase I isoform gamma-1 (Homo sapiens), sequence (Q9HCP0 whole entry, looked up, canonical isoform): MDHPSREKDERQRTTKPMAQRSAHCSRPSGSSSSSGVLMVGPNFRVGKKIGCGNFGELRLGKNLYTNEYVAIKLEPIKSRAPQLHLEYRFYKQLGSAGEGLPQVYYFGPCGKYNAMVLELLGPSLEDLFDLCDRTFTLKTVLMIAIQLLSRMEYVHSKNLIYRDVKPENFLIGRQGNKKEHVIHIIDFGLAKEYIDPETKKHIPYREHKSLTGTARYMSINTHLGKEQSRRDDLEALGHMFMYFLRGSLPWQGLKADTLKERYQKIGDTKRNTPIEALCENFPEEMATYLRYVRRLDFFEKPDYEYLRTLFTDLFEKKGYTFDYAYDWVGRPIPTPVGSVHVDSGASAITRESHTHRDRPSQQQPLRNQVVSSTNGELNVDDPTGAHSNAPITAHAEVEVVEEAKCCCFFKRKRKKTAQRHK

[19] = target: Dual specificity mitogen-activated protein kinase kinase 7 (Homo sapiens) (UniProt O14733); assay: Inhibition of human MKK7beta at 10 uM after 60 mins by TR-FRET assay; details: values are per cent of control
Dual specificity mitogen-activated protein kinase kinase 7 (Homo sapiens), sequence (O14733 whole entry): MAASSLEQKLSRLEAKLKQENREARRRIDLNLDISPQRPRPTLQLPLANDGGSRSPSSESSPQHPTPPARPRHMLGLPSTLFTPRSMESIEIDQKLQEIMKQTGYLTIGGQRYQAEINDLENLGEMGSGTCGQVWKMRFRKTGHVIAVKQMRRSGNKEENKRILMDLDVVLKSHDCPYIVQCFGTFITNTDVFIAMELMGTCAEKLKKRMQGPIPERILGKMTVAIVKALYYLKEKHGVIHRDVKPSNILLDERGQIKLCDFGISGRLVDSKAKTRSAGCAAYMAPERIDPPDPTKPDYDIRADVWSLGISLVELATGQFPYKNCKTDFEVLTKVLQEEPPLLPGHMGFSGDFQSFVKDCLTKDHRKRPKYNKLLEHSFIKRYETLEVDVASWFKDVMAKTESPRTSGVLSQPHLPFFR

[20] = system: Platelet-derived growth factor receptor alpha (Homo sapiens), P16234 [V561D]; assay: Inhibition of human PDGFRalpha V561D mutant at 10 uM after 60 mins by TR-FRET assay; values are per cent of control
Platelet-derived growth factor receptor alpha (Homo sapiens), P16234 [V561D], sequence (P16234 whole entry V561D): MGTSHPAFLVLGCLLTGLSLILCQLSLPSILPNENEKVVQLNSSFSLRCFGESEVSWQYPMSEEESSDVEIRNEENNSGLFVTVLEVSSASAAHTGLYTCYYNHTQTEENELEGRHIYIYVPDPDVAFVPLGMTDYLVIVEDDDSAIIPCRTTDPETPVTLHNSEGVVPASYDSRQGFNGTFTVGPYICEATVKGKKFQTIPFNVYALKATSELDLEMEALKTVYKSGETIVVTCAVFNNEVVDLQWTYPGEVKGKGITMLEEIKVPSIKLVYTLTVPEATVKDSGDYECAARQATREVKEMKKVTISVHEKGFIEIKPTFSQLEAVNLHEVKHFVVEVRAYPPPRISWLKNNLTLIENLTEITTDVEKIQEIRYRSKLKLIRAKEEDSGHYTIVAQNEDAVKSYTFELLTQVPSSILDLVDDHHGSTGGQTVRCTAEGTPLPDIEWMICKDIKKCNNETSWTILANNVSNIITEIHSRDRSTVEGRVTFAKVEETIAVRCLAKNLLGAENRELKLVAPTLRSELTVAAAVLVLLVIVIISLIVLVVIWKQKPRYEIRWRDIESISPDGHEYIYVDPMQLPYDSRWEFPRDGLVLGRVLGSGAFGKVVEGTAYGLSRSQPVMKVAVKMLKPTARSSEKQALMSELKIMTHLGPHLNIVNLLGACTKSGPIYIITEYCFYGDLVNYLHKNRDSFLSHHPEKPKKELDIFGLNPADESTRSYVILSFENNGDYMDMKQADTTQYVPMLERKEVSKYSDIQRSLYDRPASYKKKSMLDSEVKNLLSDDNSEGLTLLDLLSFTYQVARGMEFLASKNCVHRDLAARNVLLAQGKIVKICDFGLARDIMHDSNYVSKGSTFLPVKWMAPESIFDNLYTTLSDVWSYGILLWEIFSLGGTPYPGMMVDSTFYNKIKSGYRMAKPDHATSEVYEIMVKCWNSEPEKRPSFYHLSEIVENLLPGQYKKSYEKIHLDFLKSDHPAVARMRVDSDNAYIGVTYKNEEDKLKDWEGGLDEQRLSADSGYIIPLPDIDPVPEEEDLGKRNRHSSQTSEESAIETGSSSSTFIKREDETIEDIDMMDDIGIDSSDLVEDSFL

[21] = target: Proto-oncogene tyrosine-protein kinase ROS (Homo sapiens) (UniProt P08922); assay: Inhibition of human Ros at 10 uM after 60 mins by TR-FRET assay; values are per cent of control
[22] = target: Serine/threonine-protein kinase SIK1 (Homo sapiens) (UniProt P57059); assay: Inhibition of human SIK at 10 uM after 60 mins by TR-FRET assay; details: values are per cent of control
[23] = target: Mitogen-activated protein kinase kinase kinase 9 (Homo sapiens) (UniProt P80192); assay: Inhibition of human MLK1 at 10 uM after 60 mins by TR-FRET assay; values are per cent of control
[24] = target: Eukaryotic elongation factor 2 kinase (Homo sapiens) (UniProt O00418); assay: Inhibition of human eEF-2K at 10 uM after 60 mins by TR-FRET assay; values are per cent of control
[25] = target: Calcium/calmodulin-dependent protein kinase type II subunit delta (Homo sapiens) (UniProt Q13557); assay: Inhibition of human CaMK2delta at 10 uM after 60 mins by TR-FRET assay; values are per cent of control
Calcium/calmodulin-dependent protein kinase type II subunit delta (Homo sapiens), sequence (Q13557 whole entry): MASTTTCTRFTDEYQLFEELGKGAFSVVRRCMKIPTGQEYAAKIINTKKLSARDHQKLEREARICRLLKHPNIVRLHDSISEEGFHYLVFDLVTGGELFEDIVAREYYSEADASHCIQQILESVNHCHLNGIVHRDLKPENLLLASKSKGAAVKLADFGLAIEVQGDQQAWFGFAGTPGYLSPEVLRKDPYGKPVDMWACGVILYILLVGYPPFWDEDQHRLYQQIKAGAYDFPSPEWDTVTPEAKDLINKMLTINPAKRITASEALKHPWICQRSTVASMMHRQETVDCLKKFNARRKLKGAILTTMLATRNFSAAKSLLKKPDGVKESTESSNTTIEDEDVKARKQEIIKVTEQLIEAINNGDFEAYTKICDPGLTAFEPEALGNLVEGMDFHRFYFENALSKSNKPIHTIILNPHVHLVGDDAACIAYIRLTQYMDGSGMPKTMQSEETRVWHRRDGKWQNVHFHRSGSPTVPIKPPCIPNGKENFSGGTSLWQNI

[26] = target: Serine/threonine-protein kinase Sgk1 (Homo sapiens) (UniProt O00141); assay: Inhibition of human SGK at 10 uM after 60 mins by TR-FRET assay; values are per cent of control
Serine/threonine-protein kinase Sgk1 (Homo sapiens), sequence (O00141 whole entry): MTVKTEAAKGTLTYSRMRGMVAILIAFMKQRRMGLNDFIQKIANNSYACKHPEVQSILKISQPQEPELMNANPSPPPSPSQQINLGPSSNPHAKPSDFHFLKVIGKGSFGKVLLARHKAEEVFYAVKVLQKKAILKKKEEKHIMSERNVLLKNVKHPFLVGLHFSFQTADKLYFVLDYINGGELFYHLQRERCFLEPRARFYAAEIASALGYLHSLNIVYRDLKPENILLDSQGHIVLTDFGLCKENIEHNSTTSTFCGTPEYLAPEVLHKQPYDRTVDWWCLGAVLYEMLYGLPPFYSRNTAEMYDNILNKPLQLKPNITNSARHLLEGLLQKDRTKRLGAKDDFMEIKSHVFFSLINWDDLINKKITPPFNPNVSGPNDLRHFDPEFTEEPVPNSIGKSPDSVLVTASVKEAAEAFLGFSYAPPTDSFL

[27] = target: Dual specificity protein kinase CLK3 (Homo sapiens) (UniProt P49761); assay: Inhibition of human CLK3 at 10 uM after 60 mins by TR-FRET assay; values are per cent of control
[28] = target: Serine/threonine-protein kinase haspin (Homo sapiens) (UniProt Q8TF76); assay: Inhibition of human Haspin at 10 uM after 60 mins by TR-FRET assay; values are per cent of control

T1 sequence (P28482 whole entry): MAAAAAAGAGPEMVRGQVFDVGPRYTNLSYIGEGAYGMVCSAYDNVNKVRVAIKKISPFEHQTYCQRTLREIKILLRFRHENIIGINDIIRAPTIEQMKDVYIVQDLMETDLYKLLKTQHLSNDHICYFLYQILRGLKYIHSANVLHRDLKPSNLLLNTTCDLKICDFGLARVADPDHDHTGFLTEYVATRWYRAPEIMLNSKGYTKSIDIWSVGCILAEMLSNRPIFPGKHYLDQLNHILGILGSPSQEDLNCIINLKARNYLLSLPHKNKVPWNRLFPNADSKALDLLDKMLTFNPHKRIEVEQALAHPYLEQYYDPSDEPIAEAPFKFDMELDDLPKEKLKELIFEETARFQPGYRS

## S=c1[nH]nc(-c2ccncc2)n1-c1ccc2ccccc2c1
[1]
  residual activity: 114%
[2]
  residual activity: 108%
[3]
  residual activity: 98%
[4]
  residual activity: 109%
[5]
  residual activity: 100%
[6]
  residual activity: 64%
[7]
  residual activity: 122%
[8]
  residual activity: 114%
[9]
  residual activity: 112%
[10]
  residual activity: 104%
[11]
  residual activity: 116%
[12]
  residual activity: 109%
Saccharomyces cerevisiae
  residual activity: 90%
[13]
  residual activity: 110%
[14]
  residual activity: 101%
[15]
  residual activity: 110%
[16]
  residual activity: 109%
[17]
  residual activity: 98%
[18]
  residual activity: 105%
[19]
  residual activity: 126%
[20]
  residual activity: 107%
[21]
  residual activity: 100%
[22]
  residual activity: 117%
[23]
  residual activity: 109%
[24]
  residual activity: 105%
[25]
  residual activity: 106%
[26]
  residual activity: 109%
[27]
  residual activity: 96%
[28]
  residual activity: 102%
